Experimental data taken from patent US9771369B2, “Compounds and methods for kinase modulation, and indications therefor” (Plexxikon Inc., priority 2014, dated 2017).

Tests used:
[1] = test system: BaF3-FL KIT D816V or BaF3-FL KIT V560G/D816V cell line; experiment: Cell-based assays of c-Kit mutant kinase activity (cell proliferation, ATPlite); conditions: at least one of the c-kit cell assays of Example 7
Outline: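 BaF3 cells dependent on transfected full-length human KIT D816V or V560G/D816V (pCI-Neo, CMV promoter) were seeded at 1×10^4 cells/well and exposed to 8-point 1:3 dilutions from 10 μM top (0.2% DMSO) for three days at 37° C. ATPlite luminescence gave cell number; IC50 from concentration-response.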

[2] = target: c-Kit kinase (Homo sapiens (Human), UniProt P10721); experiment: c-Kit biochemical assay (AlphaScreen kinase activity)
c-Kit kinase, sequence (P10721 26-976): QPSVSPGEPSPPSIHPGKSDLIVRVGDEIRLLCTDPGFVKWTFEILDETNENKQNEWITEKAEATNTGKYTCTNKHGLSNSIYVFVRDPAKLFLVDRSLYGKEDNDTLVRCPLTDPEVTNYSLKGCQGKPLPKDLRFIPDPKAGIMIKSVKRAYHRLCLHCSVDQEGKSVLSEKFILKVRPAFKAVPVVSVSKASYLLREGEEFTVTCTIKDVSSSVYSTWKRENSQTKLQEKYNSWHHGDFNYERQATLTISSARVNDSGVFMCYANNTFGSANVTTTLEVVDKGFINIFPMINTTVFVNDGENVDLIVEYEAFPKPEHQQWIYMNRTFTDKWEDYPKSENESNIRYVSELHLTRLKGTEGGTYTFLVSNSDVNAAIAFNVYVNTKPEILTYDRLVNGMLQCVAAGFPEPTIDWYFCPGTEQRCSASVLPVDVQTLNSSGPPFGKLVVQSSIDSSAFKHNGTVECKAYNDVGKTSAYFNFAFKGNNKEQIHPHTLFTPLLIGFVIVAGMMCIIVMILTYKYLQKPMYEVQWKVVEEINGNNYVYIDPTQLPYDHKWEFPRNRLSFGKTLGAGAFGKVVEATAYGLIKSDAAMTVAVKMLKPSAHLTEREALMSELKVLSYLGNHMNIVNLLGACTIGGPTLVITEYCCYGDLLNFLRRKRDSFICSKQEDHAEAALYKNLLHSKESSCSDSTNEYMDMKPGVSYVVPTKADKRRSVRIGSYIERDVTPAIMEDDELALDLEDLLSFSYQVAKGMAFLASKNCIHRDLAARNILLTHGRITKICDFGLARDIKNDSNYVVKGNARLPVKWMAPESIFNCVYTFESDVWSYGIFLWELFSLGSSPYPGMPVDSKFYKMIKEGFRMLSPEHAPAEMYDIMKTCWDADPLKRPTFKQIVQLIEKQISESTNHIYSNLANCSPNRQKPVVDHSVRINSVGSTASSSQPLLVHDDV
Outline: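 IC50 values come from 8-point, 1:3 compound titrations measuring inhibition of peptide phosphorylation by c-Kit (commercial or His-tagged E. coli-expressed) over 1 h at room temperature, read by AlphaScreen PY30/streptavidin beads. Low-ATP version: 10 μM ATP, 100 nM biotin-(E4Y)3; high-ATP version: 100 μM ATP, 30 nM biotin-(E4Y)10.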

Compound	IC50 [1]	IC50 [2]
Cc1nc(C2CCN(c3ncnc4[nH]c(-c5ccc(S(N)(=O)=O)cc5)cc34)CC2)[nH]c1-c1ccccc1 [P-3048, 4-[4-[4-(4-methyl-5-phenyl-1H-imidazol-2-yl)-1-piperidyl]-7H-pyrrolo[2,3-d]pyrimidin-6-yl]benzenesulfonamide]	< 10000 nM	1 to 10 µM
CNC(=O)c1cccc(-c2cc3c(N4CCC(c5nc(C)c(-c6ccccc6)[nH]5)CC4)ncnc3[nH]2)c1 [P-3049, N-methyl-3-[4-[4-(4-methyl-5-phenyl-1H-imidazol-2-yl)-1-piperidyl]-7H-pyrrolo[2,3-d]pyrimidin-6-yl]benzamide]	< 10000 nM	1 to 10 µM
Cc1nc(C2CCN(c3ncnc4[nH]c(-c5cnn(C(F)F)c5)cc34)CC2)[nH]c1-c1ccccc1 [P-3050, 6-[1-(difluoromethyl)pyrazol-4-yl]-4-[4-(4-methyl-5-phenyl-1H-imidazol-2-yl)-1-piperidyl]-7H-pyrrolo[2,3-d]pyrimidine]	< 10000 nM	0.0001 to 1 µM
Cc1nc(C2CCN(c3ncnc4[nH]c(-c5cccc(S(N)(=O)=O)c5)cc34)CC2)[nH]c1-c1ccccc1 [P-3051, 3-[4-[4-(4-methyl-5-phenyl-1H-imidazol-2-yl)-1-piperidyl]-7H-pyrrolo[2,3-d]pyrimidin-6-yl]benzenesulfonamide]	< 10000 nM	0.0001 to 1 µM
COc1ccc(-c2[nH]c(C3(C)CCN(c4ncnc5[nH]c(-c6ccc(F)cc6)cc45)CC3)nc2C)cc1C [P-3052, 6-(4-fluorophenyl)-4-[4-[5-(4-methoxy-3-methyl-phenyl)-4-methyl-1H-imidazol-2-yl]-4-methyl-1-piperidyl]-7H-pyrrolo[2,3-d]pyrimidine]	< 10000 nM	0.0001 to 1 µM
COc1ccc(-c2[nH]c(C3(C)CCN(c4ncnc5[nH]c(-c6ccc(C#N)cc6)cc45)CC3)nc2C)cc1C [P-3053, 4-[4-[4-[5-(4-methoxy-3-methyl-phenyl)-4-methyl-1H-imidazol-2-yl]-4-methyl-1-piperidyl]-7H-pyrrolo[2,3-d]pyrimidin-6-yl]benzonitrile]	< 10000 nM	0.0001 to 1 µM
COc1cc(-c2cc3c(N4CCC(C)(c5nc(C)c(-c6ccc(OC)c(C)c6)[nH]5)CC4)ncnc3[nH]2)ccn1 [P-3054, 4-[4-[5-(4-methoxy-3-methyl-phenyl)-4-methyl-1H-imidazol-2-yl]-4-methyl-1-piperidyl]-6-(2-methoxy-4-pyridyl)-7H-pyrrolo[2,3-d]pyrimidine]	< 10000 nM	0.0001 to 1 µM
CCC1(c2nc(C)c(-c3ccc(OC)cc3)[nH]2)CCN(c2ncnc3[nH]c(-c4ccc(F)cc4)cc23)CC1 [P-3055, 4-[4-ethyl-4-[5-(4-methoxyphenyl)-4-methyl-1H-imidazol-2-yl]-1-piperidyl]-6-(4-fluorophenyl)-7H-pyrrolo[2,3-d]pyrimidine]	< 10000 nM	0.0001 to 1 µM
CCC1(c2nc(C)c(-c3ccc(OC)c(C)c3)[nH]2)CCN(c2ncnc3[nH]c(-c4ccc(F)cc4)cc23)CC1 [P-3056, 4-[4-ethyl-4-[5-(4-methoxy-3-methyl-phenyl)-4-methyl-1H-imidazol-2-yl]-1-piperidyl]-6-(4-fluorophenyl)-7H-pyrrolo[2,3-d]pyrimidine]	< 10000 nM	0.0001 to 1 µM
Cc1nc(C2(C)CCN(c3ncnc4[nH]c(-c5ccc(F)cc5)cc34)CC2)[nH]c1-c1ccc(F)cc1 [P-3057, 6-(4-fluorophenyl)-4-[4-[5-(4-fluorophenyl)-4-methyl-1H-imidazol-2-yl]-4-methyl-1-piperidyl]-7H-pyrrolo[2,3-d]pyrimidine]	< 10000 nM	0.0001 to 1 µM
Cc1nc(C2(C)CCN(c3ncnc4[nH]c(-c5ccc(F)cc5)cc34)CC2)[nH]c1-c1ccc(Cl)cc1 [P-3058, 4-[4-[5-(4-chlorophenyl)-4-methyl-1H-imidazol-2-yl]-4-methyl-1-piperidyl]-6-(4-fluorophenyl)-7H-pyrrolo[2,3-d]pyrimidine]	< 10000 nM	0.0001 to 1 µM
CCc1ccc(-c2[nH]c(C3CCN(c4ncnc5[nH]c(-c6ccnc(OC)c6)cc45)CC3)nc2C)cc1 [P-3059, 4-[4-[5-(4-ethylphenyl)-4-methyl-1H-imidazol-2-yl]-1-piperidyl]-6-(2-methoxy-4-pyridyl)-7H-pyrrolo[2,3-d]pyrimidine]	< 10000 nM	0.0001 to 1 µM
CCc1ccc(-c2[nH]c(C3CCN(c4ncnc5[nH]c(-c6ccc(F)cc6)cc45)CC3)nc2C)cc1 [P-3060, 4-[4-[5-(4-ethylphenyl)-4-methyl-1H-imidazol-2-yl]-1-piperidyl]-6-(4-fluorophenyl)-7H-pyrrolo[2,3-d]pyrimidine]	< 10000 nM	0.0001 to 1 µM
CCc1ccc(-c2[nH]c(C3CCN(c4ncnc5[nH]c(-c6ccc(C#N)cc6)cc45)CC3)nc2C)cc1 [P-3061, 4-[4-[4-[5-(4-ethylphenyl)-4-methyl-1H-imidazol-2-yl]-1-piperidyl]-7H-pyrrolo[2,3-d]pyrimidin-6-yl]benzonitrile]	< 10000 nM	0.0001 to 1 µM
Cc1ccc(-c2[nH]c(C3CCN(c4ncnc5[nH]c(-c6ccc(F)cc6)cc45)CC3)nc2C)cc1 [P-3062, 6-(4-fluorophenyl)-4-[4-[4-methyl-5-(p-tolyl)-1H-imidazol-2-yl]-1-piperidyl]-7H-pyrrolo[2,3-d]pyrimidine]	< 10000 nM	0.0001 to 1 µM
COc1ccc(-c2[nH]c(C3(C)CCN(c4ncnc5[nH]c(C)cc45)CC3)nc2C)cc1 [P-3063, 4-[4-[5-(4-methoxyphenyl)-4-methyl-1H-imidazol-2-yl]-4-methyl-1-piperidyl]-6-methyl-7H-pyrrolo[2,3-d]pyrimidine]	< 10000 nM	1 to 10 µM
Cc1cc2c(N3CCC(C)(c4nc(C)c(-c5ccc(F)cc5)[nH]4)CC3)ncnc2[nH]1 [P-3064, 4-[4-[5-(4-fluorophenyl)-4-methyl-1H-imidazol-2-yl]-4-methyl-1-piperidyl]-6-methyl-7H-pyrrolo[2,3-d]pyrimidine]	< 10000 nM	1 to 10 µM
CCOc1ccc(-c2[nH]c(C3CCN(c4ncnc5[nH]c(-c6ccc(F)cc6)cc45)CC3)nc2C)cc1C [P-3065, 4-[4-[5-(4-ethoxy-3-methyl-phenyl)-4-methyl-1H-imidazol-2-yl]-1-piperidyl]-6-(4-fluorophenyl)-7H-pyrrolo[2,3-d]pyrimidine]	< 10000 nM	0.0001 to 1 µM
CCOc1ccc(-c2[nH]c(C3CCN(c4ncnc5[nH]c(-c6ccc(C#N)cc6)cc45)CC3)nc2C)cc1C [P-3066, 4-[4-[4-[5-(4-ethoxy-3-methyl-phenyl)-4-methyl-1H-imidazol-2-yl]-1-piperidyl]-7H-pyrrolo[2,3-d]pyrimidin-6-yl]benzonitrile]	< 10000 nM	0.0001 to 1 µM
CCOc1ccc(-c2[nH]c(C3CCN(c4ncnc5[nH]c(-c6ccnc(OC)c6)cc45)CC3)nc2C)cc1C [P-3067, 4-[4-[5-(4-ethoxy-3-methyl-phenyl)-4-methyl-1H-imidazol-2-yl]-1-piperidyl]-6-(2-methoxy-4-pyridyl)-7H-pyrrolo[2,3-d]pyrimidine]	< 10000 nM	0.0001 to 1 µM
Cc1nc(C2CCN(c3ncnc4[nH]c(-c5ccc(F)cc5)cc34)CC2)[nH]c1-c1ccc2c(c1)OCO2 [P-3068, 4-[4-[5-(1,3-benzodioxol-5-yl)-4-methyl-1H-imidazol-2-yl]-1-piperidyl]-6-(4-fluorophenyl)-7H-pyrrolo[2,3-d]pyrimidine]	< 10000 nM	0.0001 to 1 µM
Cc1nc(C2CCN(c3ncnc4[nH]c(-c5ccc(C#N)cc5)cc34)CC2)[nH]c1-c1ccc2c(c1)OCO2 [P-3069, 4-[4-[4-[5-(1,3-benzodioxol-5-yl)-4-methyl-1H-imidazol-2-yl]-1-piperidyl]-7H-pyrrolo[2,3-d]pyrimidin-6-yl]benzonitrile]	< 10000 nM	0.0001 to 1 µM
COc1cc(-c2cc3c(N4CCC(c5nc(C)c(-c6ccc7c(c6)OCO7)[nH]5)CC4)ncnc3[nH]2)ccn1 [P-3070, 4-[4-[5-(1,3-benzodioxol-5-yl)-4-methyl-1H-imidazol-2-yl]-1-piperidyl]-6-(2-methoxy-4-pyridyl)-7H-pyrrolo[2,3-d]pyrimidine]	< 10000 nM	0.0001 to 1 µM
CC(=O)Nc1cccc(-c2cc3c(N4CCC(c5nc(C)c(-c6ccccc6)[nH]5)CC4)ncnc3[nH]2)c1 [P-3071, N-[3-[4-[4-(4-methyl-5-phenyl-1H-imidazol-2-yl)-1-piperidyl]-7H-pyrrolo[2,3-d]pyrimidin-6-yl]phenyl]acetamide]	< 10000 nM	0.0001 to 1 µM
COc1ccc(-c2cc3c(N4CCC(c5nc(C)c(-c6ccccc6)[nH]5)CC4)ncnc3[nH]2)cn1 [P-3072, 6-(6-methoxy-3-pyridyl)-4-[4-(4-methyl-5-phenyl-1H-imidazol-2-yl)-1-piperidyl]-7H-pyrrolo[2,3-d]pyrimidine]	< 10000 nM	1 to 10 µM
Cc1nn(C)cc1-c1cc2c(N3CCC(c4nc(C)c(-c5ccccc5)[nH]4)CC3)ncnc2[nH]1 [P-3073, 6-(1,3-dimethylpyrazol-4-yl)-4-[4-(4-methyl-5-phenyl-1H-imidazol-2-yl)-1-piperidyl]-7H-pyrrolo[2,3-d]pyrimidine]	< 10000 nM	0.0001 to 1 µM
Cc1ccc(-c2cc3c(N4CCC(c5nc(C)c(-c6ccccc6)[nH]5)CC4)ncnc3[nH]2)cn1 [P-3074, 4-[4-(4-methyl-5-phenyl-1H-imidazol-2-yl)-1-piperidyl]-6-(6-methyl-3-pyridyl)-7H-pyrrolo[2,3-d]pyrimidine]	< 10000 nM	0.0001 to 1 µM
CCOc1cc(-c2cc3c(N4CCC(c5nc(C)c(-c6ccccc6)[nH]5)CC4)ncnc3[nH]2)ccn1 [P-3075, 6-(2-ethoxy-4-pyridyl)-4-[4-(4-methyl-5-phenyl-1H-imidazol-2-yl)-1-piperidyl]-7H-pyrrolo[2,3-d]pyrimidine]	< 10000 nM	0.0001 to 1 µM
